Measurements as given in patent US20080039408A1, “Use of Oxypurinol as an Inhibitor of Anti-Neoplastic Agent-Induced Cardiotoxicity” (priority 2004, published 2008).
Structures can show the parent of a compound that is named as a salt.

Experiments:
[1] = molecular target: xanthine oxidase (Homo sapiens, UniProt P47989); details: cited from earlier work
[2] = system: laboratory animals; details: all laboratory animals tested; cited from earlier work
[3] = system: patients; details: 4-15 years after completion of chemotherapy; cited from earlier work
[4] = system: Female CD1 mice
Description: Female CD1 mice, weighing 20-22 g, were obtained from Charles River with implanted jugular catheters. Prior to induction of doxorubicin cardiotoxicity, the animals were randomly divided into 2 groups: • Group 1: Treatment with Oxypurinol (n=15), 26 mg/dl in the drinking water, start 3 days prior to doxorubicin dose and continue to sacrifice. • Group 2: Treatment with Vehicle (Saline) (n=10), start 3 days prior to doxorubicin dose and continue to sacrifice.
For induction of doxorubicin cardiotoxicity, doxorubicin, dissolved in saline, was injected by IV through the jugular catheter twice a week (Monday and Thursday) ten times at dose 4 mg/kg/day. Between doses 4 and 5 there was a two weeks hiatus to allow recovery of bone marrow suppression.
Seventeen mice were included in the vehicle Group 2. Two mice had jugular catheters that were nonoperable and excluded at the outset. Fifteen mice were included in the drug Group 1.
Seven surviving vehicle Group 2 (control) animals were sacrificed and 11 surviving drug Group 1 mice were sacrificed.

Chain of xanthine oxidase (P47989 whole entry, species assumed): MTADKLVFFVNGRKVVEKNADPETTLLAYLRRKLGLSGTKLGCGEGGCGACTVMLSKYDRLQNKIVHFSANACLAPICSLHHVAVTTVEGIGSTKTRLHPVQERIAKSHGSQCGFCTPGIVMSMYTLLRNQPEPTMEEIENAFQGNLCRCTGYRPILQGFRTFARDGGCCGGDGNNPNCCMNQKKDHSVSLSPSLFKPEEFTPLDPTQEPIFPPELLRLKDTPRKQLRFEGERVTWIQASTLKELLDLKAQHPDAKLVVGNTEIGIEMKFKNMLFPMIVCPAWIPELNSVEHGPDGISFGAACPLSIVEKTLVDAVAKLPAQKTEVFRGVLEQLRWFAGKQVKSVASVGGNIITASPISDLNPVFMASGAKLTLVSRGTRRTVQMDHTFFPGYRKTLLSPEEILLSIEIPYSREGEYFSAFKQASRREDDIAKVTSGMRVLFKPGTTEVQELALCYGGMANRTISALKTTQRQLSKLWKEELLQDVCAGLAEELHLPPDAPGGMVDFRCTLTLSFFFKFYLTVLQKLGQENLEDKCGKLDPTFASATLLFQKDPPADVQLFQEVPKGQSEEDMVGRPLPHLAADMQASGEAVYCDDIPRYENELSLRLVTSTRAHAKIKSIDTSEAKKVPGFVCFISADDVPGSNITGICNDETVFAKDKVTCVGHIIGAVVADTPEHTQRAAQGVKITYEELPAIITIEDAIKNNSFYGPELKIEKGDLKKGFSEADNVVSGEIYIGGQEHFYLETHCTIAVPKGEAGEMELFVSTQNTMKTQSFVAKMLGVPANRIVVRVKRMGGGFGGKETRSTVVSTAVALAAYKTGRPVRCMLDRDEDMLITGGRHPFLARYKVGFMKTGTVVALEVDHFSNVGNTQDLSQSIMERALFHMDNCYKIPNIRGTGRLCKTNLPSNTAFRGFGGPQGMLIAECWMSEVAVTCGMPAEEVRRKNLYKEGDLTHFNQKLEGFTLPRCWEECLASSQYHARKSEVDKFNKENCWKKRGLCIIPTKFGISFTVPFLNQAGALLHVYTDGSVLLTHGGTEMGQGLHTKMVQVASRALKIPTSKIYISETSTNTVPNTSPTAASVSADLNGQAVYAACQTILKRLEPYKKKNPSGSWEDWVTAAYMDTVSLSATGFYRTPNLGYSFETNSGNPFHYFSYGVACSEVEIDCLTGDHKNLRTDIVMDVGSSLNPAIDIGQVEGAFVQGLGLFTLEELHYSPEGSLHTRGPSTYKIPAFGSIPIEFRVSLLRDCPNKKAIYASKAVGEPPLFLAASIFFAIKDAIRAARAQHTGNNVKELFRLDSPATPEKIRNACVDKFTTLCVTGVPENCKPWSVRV

## Oc1ncnc2[nH]ncc12 [allopurinol, 1,5-dihydro4H-pyrazolol[3,4-d}pyrimidin-4-one monosodium salt, reference compound]
[1]
  immediate inhibition of superoxide radical production: very little immediate inhibition

## C[C@@H](CN1CC(=O)NC(=O)C1)N1CC(=O)NC(=O)C1 [dexrazoxane]
[2]
  chronic cardiotoxicity in laboratory animals: prevents chronic cardiotoxicity

## COc1cccc2c1C(=O)c1c(O)c3c(c(O)c1C2=O)C[C@@](O)(C(=O)CO)C[C@@H]3O[C@H]1C[C@H](N)[C@H](O)[C@H](C)O1 [doxorubicin, 14-hydroxydaunomycin]
[3]
  late onset chronic cardiac events, share of patients: 18-65%

## O=c1[nH]c(=O)c2c[nH]nc2[nH]1 [oxypurinol]
[4]; histology of surviving mice sacrificed prior to dose 4 of doxorubicin
  cellular necrosis score, difference vs vehicle: not statistically significant
[4]; histology of surviving mice sacrificed prior to dose 4 of doxorubicin, 11 mice, p=0.004 vs vehicle
  mean cellular swelling score: 1.8±0.4
[4]; oxypurinol 26 mg/dl in drinking water from 3 days before doxorubicin, doxorubicin 4 mg/kg/day IV twice a week, 15 mice in group
  deaths following 3 doses of doxorubicin: 3 deaths
[4]; oxypurinol Group 1 vs vehicle Group 2, doxorubicin-treated mice
  mortality vs vehicle group: highly significant decrease in mortality
[1]
  immediate inhibition of superoxide radical production: produces immediate inhibition
